Our source for the IC50 values is patent EP0350163A2, “Renin inhibitory peptides” (BEECHAM GROUP PLC, priority 1988, dated 1990).

For this assay, the target named is T1, human renin (Homo sapiens, UniProt P00797).
T1 construct: from tissue; host or cells: human plasma from the blood of healthy volunteers
T1 sequence (P00797 67-406): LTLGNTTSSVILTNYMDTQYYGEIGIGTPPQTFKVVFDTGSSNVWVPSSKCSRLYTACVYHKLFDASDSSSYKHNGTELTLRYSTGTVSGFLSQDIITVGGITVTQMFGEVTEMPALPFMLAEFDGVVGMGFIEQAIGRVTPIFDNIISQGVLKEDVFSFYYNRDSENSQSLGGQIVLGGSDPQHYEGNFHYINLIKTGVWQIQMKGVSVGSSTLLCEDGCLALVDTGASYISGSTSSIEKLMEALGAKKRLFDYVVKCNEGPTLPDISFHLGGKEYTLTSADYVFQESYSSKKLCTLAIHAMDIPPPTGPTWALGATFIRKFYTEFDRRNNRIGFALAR
Nature of the assay: In vitro human renin inhibition (renin activity in human plasma, angiotensin I radioimmunoassay). Conditions: human plasma from healthy volunteers; angiotensin I difference between 37° and 4° for 2 h; linear regression of at least three concentrations; read-out: IC₅₀. The assay is classed as biochemical. On the procedure:
Renin inhibitory activity was estimated as the percentage change in renin activity in human plasma in the presence and absence of compound. The source of plasma was blood taken from healthy volunteers. Renin activity was defined by the difference in angiotensin I levels between two halves of a sample, one incubated at 37^o and the other at 4^o for 2 h. Angiotensin I levels were measured using a ¹²⁵I- angiotensin I radioimmunoassay kit (NEN/DuPont, Stevenage). Results were calculated as the mean of at least two, duplicate determinations and IC₅₀ values were calculated by linear regression analysis of at least three concentrations of compound.

Counter-ions that a name gives are not always drawn.

Take `CC(C)CNC(=O)C[C@H](O)[C@H](CC1CCCCC1)NC(=O)[C@H](CC(C)C)NC(=O)[C@H](Cc1ccccc1)NC(=O)CC1COc2ccc(S(=O)(=O)CC(=O)OC(C)(C)C)cc21` (stereo partly drawn) [Example E43, 4-(S)-((5-(tert-Butoxycarbonylmethanesulphonyl)-2,3-dihydrobenzofuran-3-yl)acetyl)-(S)-phenylalanyl-(S)-leucyl)amino-5-cyclohexyl-3-(S)-hydroxypentanoic acid isobutylamide hemihydrate]: the IC50 amounted to 8 nM.
As for `CC(C)CNC(=O)C[C@H](O)[C@H](CC1CCCCC1)NC(=O)[C@H](CC(C)C)NC(=O)[C@H](Cc1ccccc1)NC(=O)CC1CS(=O)(=O)c2cc(N)ccc21` (stereo partly drawn) [Example E29, 4-(S)-((6-Amino-2,3-dihydro-1,1-dioxobenzothiophene-3-yl)acetyl-(S)-phenylalanyl-(S)-leucyl)amino-5-cyclohexyl-3-(S)-hydroxypentanoic acid isobutylamide dihydrate], the figure is 10 nM; as for `CC(C)CNC(=O)C[C@H](O)[C@H](CC1CCCCC1)NC(=O)[C@H](CC(C)C)NC(=O)[C@H](Cc1ccccc1)NC(=O)CC1COc2ccc([N+](=O)[O-])cc21` (stereo partly drawn) [E 5, 4-(S)-((5-Nitro-2,3-dihydrobenzofuran-3-yl)acetyl-(S)-phenylalanyl-(S)-leucyl)amino-5-cyclohexyl-3-(S)-hydroxypentanoic acid isobutylamide hemihydrate], 60 nM; as for `CC(C)CNC(=O)C[C@H](O)[C@H](CC1CCCCC1)NC(=O)[C@H](Cc1cnc[nH]1)NC(=O)[C@H](Cc1ccccc1)NC(=O)CC1CS(=O)(=O)c2cc(CN)ccc21` (stereo partly drawn) [Example E60, 4-(S)-((6-Aminomethyl-2,3-dihydro-1,1-dioxobenzothiophene-3-yl)acetyl-(S)-phenylalanyl-(S)-histidyl)amino-5-cyclohexyl-3-(S)-hydroxypentanoic acid isobutylamide bis(trifluoroacetate) sesquihydrate], 40 nM.
In the case of `COc1cccc2c1OCC2CC(=O)N[C@@H](Cc1ccccc1)C(=O)N[C@@H](CC(C)C)C(=O)N[C@@H](CC1CCCCC1)[C@@H](O)CC(=O)NCC(C)C` (stereo partly drawn) [E 3, 4-(S)-((7-Methoxy-2,3-dihydrobenzofuran-3-yl)acetyl-(S)-phenylalanyl-(S)-leucyl)amino-5-cyclohexyl-3-(S)-hydroxypentanoic acid isobutylamide hemihydrate] it was 50 nM; in that of `CC(C)CNC(=O)C[C@H](O)[C@H](CC1CCCCC1)NC(=O)[C@H](CC(C)C)NC(=O)[C@H](Cc1ccccc1)NC(=O)CC1COc2ccc(N)cc21` (stereo partly drawn) [E 6, 4-(S)-((5-Amino-2,3-dihydrobenzofuran-3-yl)acetyl-(S)-phenylalanyl-(S)-leucyl)amino-5-cyclohexyl-3-(S)-hydroxypentanoic acid isobutylamide trifluoroacetate hemihydrate], 30 nM.
With `CC(C)CNC(=O)C[C@H](O)[C@H](CC1CCCCC1)NC(=O)[C@H](CC(C)C)NC(=O)[C@H](Cc1ccccc1)NC(=O)CC1CS(=O)(=O)c2ccc(C#N)cc21` (stereo partly drawn) [Example E45, 4-(S)-((5-Cyano-2,3-dihydro-1,1-dioxobenzothiophene-3-yl)acetyl-(S)-phenylalanyl-(S)-leucyl)amino-5-cyclohexyl-3-(S)-hydroxypentanoic acid isobutylamide], the IC50 turned out to be 9 nM.
On to `CC(C)CNC(=O)C[C@H](O)[C@H](CC1CCCCC1)NC(=O)[C@H](CC(C)C)NC(=O)[C@H](Cc1ccccc1)NC(=O)CC1COc2ccc(S(=O)(=O)CC(=O)O)cc21` (stereo partly drawn) [Example E56, 4-(S)-((5-(Carboxymethanesulphonyl)-2,3-dihydrobenzofuran-3-yl)acetyl-(S)-phenylalanyl-(S)-leucyl)amino-5-cyclohexyl-3-(S)-hydroxypentanoic acid isobutylamide, sodium salt], for which the IC50 is 60 nM.
For the compound `CC(C)CNC(=O)C[C@H](O)[C@H](CC1CCCCC1)NC(=O)[C@H](CC(C)C)NC(=O)[C@H](Cc1ccccc1)NC(=O)CC1COc2ccc(CNCC(=O)O)cc21` (stereo partly drawn) [Example E36a, 4-(S)-((5-(Carboxymethylaminomethyl)-2,3-dihydrobenzofuran-3-yl)acetyl-(S)-phenylalanyl-(S)-leucyl)amino-5-cyclohexyl-3-(S)-hydroxvoentanoic acid isobutylamide], the IC50 is 100 nM.
As for `CNS(=O)(=O)c1ccc2c(c1)C(CC(=O)N[C@@H](Cc1ccccc1)C(=O)N[C@@H](CC(C)C)C(=O)N[C@@H](CC1CCCCC1)[C@@H](O)CC(=O)NCC(C)C)CO2` (stereo partly drawn) [E 9, 4 (S)-((5-(Methylaminosulphonyl)-2,3-dihydrobenzofuran-3-yl)acetyl-(S)-phenylalanyl-(S)-leucyl)amino-5-cyclohexyl-3-(S)-hydroxypentanoic acid isobutylamide], the IC50 stood at 50 nM.
With `CC(C)CNC(=O)C[C@H](O)[C@H](CC1CCCCC1)NC(=O)[C@H](Cc1c[nH]cn1)NC(=O)[C@H](Cc1ccccc1)NC(=O)CC1COc2ccc([N+](=O)[O-])cc21` (stereo partly drawn) [Example E39, 4-(S)-((5-Nitro-2,3-dihydrobenzofuran-3-yl)acetyl-(S)-phenylalanyl-(S)-histidyl)amino-5-cyclohexyl-3-(S)-hydroxypentanoic acid isobutylamide hydrate], the IC50 amounted to 40 nM.
In the case of `CC(C)CNC(=O)C[C@H](O)[C@H](CC1CCCCC1)NC(=O)[C@H](CC(C)C)NC(=O)[C@H](Cc1ccccc1)NC(=O)CC1COc2ccc(NC(N)=O)cc21` (stereo partly drawn) [E 7, 4-(S)-((5-Ureido-2,3-dihydrobenzofuran-3-yl)acetyl-(S)-phenylalanyl-(S)-leucyl)amino-5-cyclohexyl-3-(S)-hydroxypentanoic acid isobutylamide dihydrate] it was 50 nM; in that of `CC(C)CNC(=O)C[C@H](O)[C@H](CC1CCCCC1)NC(=O)[C@H](CC(C)C)NC(=O)[C@H](Cc1ccccc1)NC(=O)CC1CS(=O)(=O)c2ccc(CN)cc21` (stereo partly drawn) [Example E50, 4-(S)-((5-Aminomethyl-2,3-dihydro-1,1-dioxobenzothiophene-3-yl)acetyl-(S)-phenylalanyl-(S)-leucyl)amino-5-cyclohexyl-3-(S)-hydroxypentanoic acid isobutylamide], 10 nM.
In the case of `CC(C)CNC(=O)C[C@H](O)[C@H](CC1CCCCC1)NC(=O)[C@H](CC(C)C)NC(=O)[C@H](Cc1ccccc1)NC(=O)CC1CS(=O)(=O)c2cc(CN)ccc21` (stereo partly drawn) [Example E31a, 4-(S)-((6-Aminomethyl-2,3-dihydro-1,1-dioxobenzothiophene-3-yl)acetyl-(S)-phenylalanyl-(S)-leucyl)amino-5-cyclohexyl-3-(S)-hydroxypentanoic acid isobutylamide dihydrate], the IC50 was determined as 8 nM.
Consider `CC(C)CNC(=O)C[C@H](O)[C@H](CC1CCCCC1)NC(=O)[C@H](CC(C)C)NC(=O)[C@H](Cc1ccccc1)NC(=O)CC1CS(=O)(=O)c2ccccc21` (stereo partly drawn) [Example E12, 4-(S)-((2,3-Dihydro-1,1-dioxobenzothiophene-3-yl)acetyl-(S)-phenylalanyl-(S)-leucyl)amino-5-cyclohexyl-3-(S)-hydroxypentanoic acid isobutylamide], for which the IC50 was 10 nM.
Consider `CC(C)CNC(=O)C[C@H](O)[C@H](CC1CCCCC1)NC(=O)[C@H](Cc1cnc[nH]1)NC(=O)[C@H](Cc1ccccc1)NC(=O)CC1COc2ccc(C(=O)OCc3ccccc3)cc21` (stereo partly drawn) [Example E23, 4-(S)-((5-Benzyloxycarbonyl)-2,3-dihydrobenzofuran-3-yl)acetyl-(S)-phenylalanyl-(S)-histidyl)amino-5-cyclohexyl-3-(S)-hydroxypentanoic acid isobutylamide hemihydrate], for which the IC50 amounted to 470 nM.
Turning to `CC(C)CNC(=O)C[C@H](O)[C@H](CC1CCCCC1)NC(=O)[C@H](CC(C)C)NC(=O)[C@H](Cc1ccccc1)NC(=O)CC1COc2ccc(CN)cc21` (stereo partly drawn) [Example E20a, 4-(S)-((5-(Aminomethyl)-2,3-dihydrobenzofuran-3-yl)acetyl-(S)-phenylalanyl-(S)-leucyl)amino-5-cyclohexyl-3-(S)-hydroxypentanoic acid isobutylamide hemi(trichloromethanate)], the IC50 is 30 nM.
